# Where a name gives a salt, the structure may show the parent alone. Read-outs that look alike come from different tables or passages of the source.
# What was measured:
# [1] = system: E. coli UBMS 88-1 Tet B; assay: microbe, parasite or virus in culture; format: cell-based
# [2] = system: E. coli PRP1 Tet A; assay: microbe, parasite or virus in culture; format: cell-based
# [3] = system: E. coli MC 4100 TNIOC Tet B; assay: microbe, parasite or virus in culture; format: cell-based
# [4] = system: E. coli J3272 Tet C; assay: microbe, parasite or virus in culture; format: cell-based
# [5] = system: E. coli UBMS 89-2 Tet sens.; assay: MIC, agar dilution; format: cell-based
# [6] = system: E. coli J2175; assay: MIC, agar dilution; format: cell-based
# [7] = system: E. coli BAJ9003 IMP MUT; assay: microbe, parasite or virus in culture; format: cell-based; conditions: E. coli BAJ9003 IMP MUT
# [8] = system: S. marcescens FPOR 8733; assay: MIC, agar dilution; format: cell-based
# [9] = system: X. maltophilia NEMC 87210; assay: MIC, agar dilution; format: cell-based
# [10] = system: Ps. aeruginosa ATCC 27853; assay: MIC, agar dilution; format: cell-based; conditions: Ps. aeruginosa ATCC 27853
# [11] = system: S. aureus NEMC 8769; assay: MIC, agar dilution; format: cell-based
# [12] = system: S. aureus UBMS 88-4; assay: MIC, agar dilution; format: cell-based
# [13] = system: S. aureus UBMS 88-7 Tet K; assay: microbe, parasite or virus in culture; format: cell-based
# [14] = system: S. aureus UBMS 90-3; assay: MIC, agar dilution; format: cell-based; conditions: S. aureus UBMS 90-3
# [15] = system: S. aureus IVES 2943; assay: MIC, agar dilution; format: cell-based
# [16] = system: S. aureus ROSE (MP); assay: MIC, agar dilution; format: cell-based
# [17] = system: S. aureus SMITH (MP); assay: MIC, agar dilution; format: cell-based
# [18] = system: S. aureus IVES 1983; assay: MIC, agar dilution; format: cell-based
# [19] = system: S. aureus ATCC 29213; assay: MIC, agar dilution; format: cell-based; conditions: Staphylococcus aureus, ATCC29213, 18 h, S. aureus ATCC 29213; read-out: MIC
# [20] = system: Enterococcus 12201; assay: MIC, agar dilution; format: cell-based
# [21] = system: E. faecalis ATCC 29212; assay: MIC, agar dilution; format: cell-based; conditions: E. faecalis ATCC 29212
# [22] = system: Staphylococcus aureus strain Smith (tetracycline sensitive); assay: Acute lethal infection in mice, S. aureus Smith; format: in vivo; conditions: for ED50: mice, S. aureus Smith (Sens), 7 day survival; for in vivo activity (in words): tested intravenously against the minocycline sensitive organism S. aureus Smith
# [23] = system: E. coli UBMS 90-4 Tet M; assay: microbe, parasite or virus in culture; format: cell-based; conditions: Escherichia coli, UBMS904TETM, 18 h
# [24] = system: E. coli UBMS 90-5; assay: microbe, parasite or virus in culture; format: cell-based; conditions: E. coli UBMS 90-5
# [25] = system: E. coli #311 (MP); assay: MIC, agar dilution; format: cell-based; conditions: Escherichia coli, 18 h
# [26] = system: S. aureus UBMS 90-1 Tet M; assay: microbe, parasite or virus in culture; format: cell-based; conditions: Staphylococcus aureus, UBMS901TETM, 18 h
# [27] = system: S. aureus UBMS 90-2 Tet M; assay: microbe, parasite or virus in culture; format: cell-based; conditions: Staphylococcus aureus, UBMS902TETM, 18 h
# [28] = system: S. hemolyticus AVHAH 88-3; assay: MIC, agar dilution; format: cell-based
# [29] = system: E. coli UBMS 89-1 Tet M; assay: microbe, parasite or virus in culture; format: cell-based
# [30] = system: E. coli ATCC 25922; assay: MIC, agar dilution; format: cell-based
# [31] = system: E. coli J3272 Tet D; assay: microbe, parasite or virus in culture; format: cell-based; conditions: monohydrochloride
# [32] = system: S. aureus UBMS 88-5 Tet M; assay: microbe, parasite or virus in culture; format: cell-based; conditions: Staphylococcus aureus, UBMS885TETM, 18 h
# [33] = Staphylococcus aureus, NEMC8769, 18 h, read-out: MIC
# [34] = Escherichia coli, UBMS881TETB, 18 h
# [35] = Escherichia coli, PRP1TETA, 18 h
# [36] = Escherichia coli, J3272TETC, 18 h
# [37] = Escherichia coli, 18 h, read-out: MIC
# [38] = Escherichia coli, UBMS905, 18 h, read-out: MIC
# [39] = Serratia marcescens, FPOR8733, 18 h, read-out: MIC
# [40] = Pseudomonas aeruginosa, ATCC27853, 18 h, read-out: MIC
# [41] = Staphylococcus aureus, UBMS887TETK, 18 h
# [42] = Staphylococcus aureus, 18 h, read-out: MIC
# [43] = Staphylococcus aureus, IVES1983, 18 h
compound,measurement,setting,value
"CN(C)CC(=O)Nc1ccc2c(c1O)C(=O)C1=C(O)[C@]3(O)C(=O)C(C(N)=O)=C(O)[C@@H](N(C)C)C3CC1C2 (stereo partly drawn) [BB, [4S-(4alpha,12aalpha)]-4-(Dimethylamino)-9-[[(dimethylamino)acetyl]amino]-1,4,4a,5,5a,6,11,12a-octahydro-3,10,12,12a-tetrahydroxy-1,11-dioxo-2-naphthacenecarboxamide]",MIC,[1]; E. coli UBMS 88-1 Tet B,0.25 µg/mL
same,MIC,[2],0.5 µg/mL
same,MIC,[3]; E. coli MC 4100 TNIOC Tet B,0.25 µg/mL
same,MIC,[4],0.25 µg/mL
same,MIC,[5]; E. coli UBMS 89-2 Tet sens.,0.25 µg/mL
same,MIC,[6],0.25 µg/mL
same,MIC,[7],no growth
same,MIC,"[8]; Serratia marcescens, FPOR8733, 18 h",2 µg/mL
same,MIC,[9]; X. maltophilia NEMC 87210,1 µg/mL
same,MIC,[10],8 µg/mL
same,MIC,[11]; [33],< 0.015 µg/mL
same,MIC,[12]; S. aureus UBMS 88-4,0.06 µg/mL
same,MIC,[13],0.5 µg/mL
same,MIC,[14],0.06 µg/mL
same,MIC,[15]; S. aureus IVES 2943,0.5 µg/mL
same,MIC,"[16]; Staphylococcus aureus, 18 h",2 µg/mL
same,MIC,[17]; S. aureus SMITH (MP),0.06 µg/mL
same,MIC,"[18]; Staphylococcus aureus, IVES1983, 18 h, S. aureus IVES 1983, read-out: MIC",0.5 µg/mL
same,MIC,[19],0.3 µg/mL
same,MIC,[20]; Enterococcus 12201,0.06 µg/mL
same,MIC,[21],0.06 µg/mL
same,ED50,"[22]; Intraveneous, 10080 min",0.5 to 1 mg/kg
same,ED50,"[22]; Oral, 10080 min",8 to 16 mg/kg
same,in vivo activity (in words),[22],very good in vivo activity
"CN(C)[C@@H]1C(O)=C(C(N)=O)C(=O)[C@@]2(O)C(O)=C3C(=O)c4c(ccc(NC(=O)CN5CCCC5)c4O)CC3CC12 (stereo partly drawn) [D, [7S-(7alpha,10aalpha)]-N-[9-(Aminocarbonyl)-7-(dimethylamino)-5,5a,6,6a,7-10,10a,12-octahydro-1,8,10a,11-tetrahydroxy-10,12-dioxo-2-naphthacenyl]-1-pyrrolidineacetamide dihydrochloride]",MIC,[1]; [34],0.25 µg/mL
same,MIC,[2]; [35],0.25 µg/mL
same,MIC,"[3]; Escherichia coli, 18 h",0.25 µg/mL
same,MIC,[4]; [36],0.25 µg/mL
same,MIC,"[5]; Escherichia coli, 18 h",0.25 µg/mL
same,MIC,[6]; [37],0.25 µg/mL
same,MIC,[23],0.25 µg/mL
same,MIC,[24]; [38],0.25 µg/mL
same,MIC,[25],0.25 µg/mL
same,MIC,[8]; [39],2 µg/mL
same,MIC,"[9]; Stenotrophomonas maltophilia, NEMC87210, 18 h",1 µg/mL
same,MIC,[10]; [40],16 µg/mL
same,MIC,"[11]; Staphylococcus aureus, NEMC8769, 18 h",0.06 µg/mL
same,MIC,[13]; [41],0.5 µg/mL
same,MIC,[26],0.25 µg/mL
same,MIC,[27],0.25 µg/mL
same,MIC,"[15]; Staphylococcus aureus, IVES2943, 18 h",1 µg/mL
same,MIC,[16]; [42],2 µg/mL
same,MIC,[18]; [43],1 µg/mL
same,MIC,"[28]; Streptococcus pyogenes, AVHAH883, 18 h",0.25 µg/mL
same,ED50,"[22]; Staphylococcus aureus, iv, 168 h, Intraveneous, read-out: ED50",1 to 2 mg/kg
same,ED50,"[22]; Staphylococcus aureus, po, 168 h, Oral, read-out: ED50",> 16 mg/kg
same,in vivo activity (in words),[22],very good in vivo activity
"CN(C)CC(=O)Nc1ccc2c(c1O)C(=O)C1=C(O)[C@]3(O)C(=O)C(C(N)=O)=C(O)[C@@H](N(C)C)C3CC1C2 (stereo partly drawn) [DD, [4S-(4alpha,12aalpha)]-4-(Dimethylamino)-9-[[(dimethylamino)acetyl]amino]-1,4,4a,5,5a,6,11,12a-octahydro-3,10,12,12a-tetrahydroxy-1,11-dioxo-2-naphthacenecarboxamide monohydrochloride]",MIC,[2]; monohydrochloride,1 µg/mL
same,MIC,[4]; monohydrochloride,1 µg/mL
same,MIC,[29]; monohydrochloride,0.5 µg/mL
same,MIC,[24],0.25 µg/mL
same,MIC,[25],0.25 µg/mL
same,MIC,[30]; monohydrochloride,0.25 µg/mL
same,MIC,[31],0.25 µg/mL
same,MIC,[8],4 µg/mL
same,MIC,"[9]; X. maltophilia NEMC 87210, monohydrochloride",2 µg/mL
same,MIC,[10]; monohydrochloride,8 µg/mL
same,MIC,[11]; monohydrochloride,0.03 µg/mL
same,MIC,[13]; monohydrochloride,1 µg/mL
same,MIC,[14]; monohydrochloride,0.06 µg/mL
same,MIC,"[15]; S. aureus IVES 2943, monohydrochloride",1 µg/mL
same,MIC,[16]; monohydrochloride,4 µg/mL
same,MIC,"[18]; S. aureus IVES 1983, monohydrochloride",1 µg/mL
same,MIC,"[28]; S. hemolyticus AVHAH 88-3, monohydrochloride",0.25 µg/mL
same,MIC,[21]; monohydrochloride,0.06 µg/mL
same,ED50,"[22]; Intraveneous, monohydrochloride, 10080 min",0.67 mg/kg
same,ED50,"[22]; Oral, monohydrochloride, 10080 min",12 mg/kg
same,in vivo activity (in words),[22],very good in vivo activity
"CC(C)CNCC(=O)Nc1ccc2c(c1O)C(=O)C1=C(O)[C@]3(O)C(=O)C(C(N)=O)=C(O)[C@@H](N(C)C)C3CC1C2 (stereo partly drawn) [M, [4S-(4alpha,12aalpha)]-4-(Dimethylamino)-1,4,4a,5,5a,6,11,12a-octahydro-3,10,12,12a-tetrahydroxy-9-[[[(2-methylpropyl)amino]acetyl]amino]-1,11-dioxo-2-naphthacenecarboxamide dihydrochloride]",MIC,[1]; [34],1 µg/mL
same,MIC,[2]; [35],1 µg/mL
same,MIC,"[3]; Escherichia coli, 18 h",1 µg/mL
same,MIC,[4]; [36],1 µg/mL
same,MIC,"[29]; Escherichia coli, UBMS891TETM, 18 h",0.5 µg/mL
same,MIC,"[5]; Escherichia coli, 18 h",1 µg/mL
same,MIC,[6]; [37],1 µg/mL
same,MIC,[23],0.5 µg/mL
same,MIC,[24]; [38],1 µg/mL
same,MIC,[25],1 µg/mL
same,MIC,"[30]; Escherichia coli, ATCC25922, 18 h",0.5 µg/mL
same,MIC,[8]; [39],8 µg/mL
same,MIC,"[9]; Stenotrophomonas maltophilia, NEMC87210, 18 h, X. maltophilia NEMC 87210, read-out: MIC",2 µg/mL
same,MIC,[10]; [40],32 µg/mL
same,MIC,[11]; [33],8 µg/mL
same,MIC,"[12]; Staphylococcus aureus, UBMS884, 18 h",0.5 µg/mL
same,MIC,[32],0.5 µg/mL
same,MIC,[13]; [41],2 µg/mL
same,MIC,[26],0.5 µg/mL
same,MIC,[27],0.5 µg/mL
same,MIC,"[15]; Staphylococcus aureus, IVES2943, 18 h, S. aureus IVES 2943, read-out: MIC",4 µg/mL
same,MIC,[16]; [42],8 µg/mL
same,MIC,"[17]; Staphylococcus aureus, 18 h",0.5 µg/mL
same,MIC,[18]; [43],2 µg/mL
same,MIC,"[28]; Streptococcus pyogenes, AVHAH883, 18 h, S. hemolyticus AVHAH 88-3, read-out: MIC",2 µg/mL
same,MIC,"[20]; Enterococcus, 12201, 18 h",0.5 µg/mL
